From patent US6204293A, “Inhibitors of protein isoprenyl transferases” (University of Pittsburgh, priority 1998, dated 2001)
Counter-ions that a name gives are not always drawn.

target: T1, Rat brain protein farnesyltransferase (Rattus norvegicus, UniProt Q02293+Q04631); assay: % inhibition of farnesylation, scintillation proximity assay with biotin-K Ras B fragment; assay type: biochemical; details: Table 1; 1 × 10^-5 M
T1 construct: Rat brain protein farnesyltransferase activity is measured; from tissue; host or cells: rat brain
T1 sequence (Q02293 whole entry, the tested form may be a part, one chain of several): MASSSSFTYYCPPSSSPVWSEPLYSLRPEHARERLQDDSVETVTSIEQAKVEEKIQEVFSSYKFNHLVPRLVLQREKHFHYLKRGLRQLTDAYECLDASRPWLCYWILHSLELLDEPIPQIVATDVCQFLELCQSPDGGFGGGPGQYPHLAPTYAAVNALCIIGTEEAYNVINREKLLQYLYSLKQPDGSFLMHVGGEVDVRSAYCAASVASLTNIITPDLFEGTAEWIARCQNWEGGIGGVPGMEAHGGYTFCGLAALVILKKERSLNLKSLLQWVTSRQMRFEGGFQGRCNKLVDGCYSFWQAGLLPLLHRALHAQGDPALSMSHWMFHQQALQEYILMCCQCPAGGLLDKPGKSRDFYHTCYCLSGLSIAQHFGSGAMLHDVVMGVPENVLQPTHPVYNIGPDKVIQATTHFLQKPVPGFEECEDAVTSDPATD
Method in brief: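 Scintillation proximity read-out of farnesylation, using a biotinylated K Ras B fragment (0.1 mM final) in place of biotin-lamin. Enzyme purified from rat brain; results given as % inhibition.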

| Structure (SMILES) | % inhibition at 1 × 10^-5 M |
| --- | --- |
| CSCC[C@H](NC(=O)c1ccc(NC(=O)c2cccc(N(C)C)c2)cc1-c1ccccc1)C(=O)O [Example 752] | 58% |
| CSCC[C@H](NC(=O)c1ccc(CNc2ccc(Oc3ccccc3)cc2)cc1-c1ccccc1)C(=O)O [Example 701] | 64% |
| CSCC[C@H](NC(=O)c1ccc(CNc2cccc(OC(F)(F)F)c2)cc1-c1ccccc1)C(=O)O [Example 678] | 73% |
| CCn1cc(NCc2ccc(C(=O)N[C@@H](CCSC)C(=O)O)c(-c3ccccc3)c2)c(=O)n1CC [Example 364] | 69% |
| CSCC[C@H](NC(=O)c1ccc(CNc2ccc(C(C)C)cc2)cc1-c1ccccc1)C(=O)O [Example 692] | 74% |
| CSCC[C@H](NC(=O)c1ccc(CNc2ccc3c(c2)Cc2ccccc2-3)cc1-c1ccccc1)C(=O)O [Example 706] | 53% |
| CSCC[C@H](NC(=O)c1ccc(CNc2ccc(-c3ccccc3)cc2)cc1-c1ccccc1)C(=O)O [Example 700] | 68% |

same assay, conditions: Table 2; 1 × 10^-6 M

| Structure (SMILES) | % inhibition at 1 × 10^-6 M |
| --- | --- |
| CSCC[C@H](NC(=O)c1ccc(CN(C(=O)c2ccccc2)C(CC2CCCCC2)CC2CCCCC2)cc1-c1ccccc1C)C(=O)O [Example 910] | 42% |
| Cc1ccccc1-c1cc(CN(C2CC2)C2(Cc3ccccc3)CCCC2)ccc1C(=O)N[C@@H](CCS(C)(=O)=O)C(=O)O [Example 345] | 91% |
| CSCC[C@H](NC(=O)c1ccc(CN(C(C)C)C2(CC3CCCCC3)CCCC2)cc1-c1ccccc1C)C(=O)O [Example 344] | 95% |
| CSCC[C@H](NC(=O)c1ccc(CNc2ccc(N3CCCCC3)cc2)cc1-c1ccccc1C)C(=O)O [Example 862] | 95% |
| CSCC[C@H](NC(=O)c1ccc(NCCO)cc1-c1ccccc1)C(=O)O [Example 502] | 24% |
| CSCC[C@H](NC(=O)c1ccc(/C=C/c2ccc(Oc3ccccc3)nn2)cc1-c1ccccc1C)C(=O)O [Example 810] | 89% |
| CSCC[C@H](NC(=O)c1ccc(CN(CC(c2ccccc2)c2ccccc2)c2ccccc2)cc1-c1ccccc1C)C(=O)O [Example 509] | 77% |
| CCSC[C@H](CC1CCCCC1)NCc1ccc(C(=O)N[C@@H](CCSC)C(=O)O)c(-c2ccccc2C)c1 [Example 403] | 99% |
| COC(=O)c1cscc1NCc1ccc(C(=O)N[C@@H](CCSC)C(=O)O)c(-c2ccccc2C)c1 [Example 724] | 87% |
| CSCC[C@H](NC(=O)c1ccc(CN(Cc2ccc(C(F)(F)F)cc2)c2ccccc2)cc1-c1ccccc1C)C(=O)O [Example 782] | 96% |
| COc1ccccc1CNCc1ccc(C(=O)N[C@@H](CCSC)C(=O)O)c(-c2ccccc2)c1 [Example 650] | 68% |
| CSCCC(CO)NCc1ccc(C(=O)N[C@@H](CCSC)C(=O)O)c(-c2ccccc2)c1 (stereo partly shown) [Example 633] | 32% |
| CSCC[C@H](NC(=O)c1ccc(NC(=O)Cc2nccs2)cc1-c1ccccc1)C(=O)O [Example 163] | 18% |
| CSCC[C@H](NC(=O)c1ccc(S(=O)(=O)NCCC2CCCCC2)cc1-c1ccccc1C)C(=O)O [Example 772] | 79% |

same assay, conditions: Table 3; 1 × 10^-7 M

| Structure (SMILES) | % inhibition at 1 × 10^-7 M |
| --- | --- |
| CCCCS(=O)(=O)N(Cc1ccc(C(=O)N[C@@H](CCSC)C(=O)O)c(-c2ccccc2C)c1)[C@H](CSCC)CC1CCCCC1 [Example 950] | 71% |
| CCS(=O)(=O)C[C@H](CC1CCCCC1)NCc1ccc(C(=O)N[C@@H](CCS(C)(=O)=O)C(=O)O)c(-c2ccccc2C)c1 [Example 621] | 98% |
| CSCC[C@H](NC(=O)c1ccc(CN[C@H](/C=C\CC(C)C)CC2CCCCC2)cc1-c1ccccc1C)C(=O)O [Example 526] | 96% |
| CSCC[C@H](NC(=O)c1ccc(CN(Cc2ccccc2)c2ccccc2[N+](=O)[O-])cc1-c1ccccc1C)C(=O)[O-].[Li+] [Example 849] | 66% |
| CSCC[C@H](NC(=O)c1ccc(CCc2ccccc2Oc2ccccc2)cc1-c1ccccc1C)C(=O)[O-].[Li+] [Example 455] | 83% |
| CSCC[C@H](NC(=O)c1ccc(CN2CCCC(OCC3CCCCC3)C2)cc1-c1ccccc1C)C(=O)O (stereo partly shown) [Example 990] | 84% |

same assay, conditions: Table 4; 1 × 10^-8 M

| Structure (SMILES) | % inhibition at 1 × 10^-8 M |
| --- | --- |
| CCSC[C@H](CC(C)C)NCc1ccc(C(=O)N[C@@H](CCSC)C(=O)O)c(-c2ccccc2C)c1 [Example 905] | 86% |
| CSCC[C@H](NC(=O)c1ccc(CCc2ccc(Oc3ccc(Cl)cc3)cc2)cc1-c1ccccc1C)C(=O)O [Example 860] | 85% |
| CCSC[C@H](CC1CCCCC1)N(C)Cc1ccc(C(=O)N[C@@H](CCSC)C(=O)O)c(-c2ccccc2C)c1 [Example 944] | 88% |
| CSCC[C@H](NC(=O)c1ccc(CN(CCC2CCCCC2)Cc2cncs2)cc1-c1ccccc1C)C(=O)O [Example 986] | 95% |
| CSCC[C@H](NC(=O)c1ccc(CN(Cc2ccccc2)c2cncnc2)cc1-c1ccccc1C)C(=O)O [Example 836] | 95% |

same assay, conditions: read-out: % inhibition at 0.01 μM (**); Table 6; ** footnote 0.01 μM (title: 0.01 mM)

| Structure (SMILES) | inhibition at 0.01 µM |
| --- | --- |
| CSCC[C@H](NC(=O)c1ccc(COCC2CCCN2C(=O)OCC2CCCCC2)cc1-c1ccccc1C)C(=O)O (stereo partly shown) [Example 1129, N-[4-(N-cyclohexylmethoxycarbonylpyrrolin-2-ylmethoxymethyl)-2-(2-methylphenyl)benzoyl]methionine Sodium salt] | 92% |

same assay, conditions: read-out: % inhibition at 0.1 μM (*); Table 6; * footnote 0.1 μM (title: 0.1 mM)

| Structure (SMILES) | inhibition at 0.1 µM |
| --- | --- |
| CSCC[C@H](NC(=O)c1ccc(CCC(=O)OCC2CCCCC2)cc1-c1ccccc1C)C(=O)O [Example 1153, N-[4-(cyclohexylmethoxycarbonylethyl)-2-(2-methylphenyl)benzoyl]methionine] | 89% |

same assay, conditions: read-out: % inhibition at 1 × 10^-6 M; Table 2; 1 × 10^-6 M

| Structure (SMILES) | inhibition at 1 µM |
| --- | --- |
| CSCC[C@H](NC(=O)c1ccc(OCCCCOc2ccccc2)cc1-c1ccccc1C)C(=O)O [Example 568, N-[4-(3-phenoxy)butoxy-2-(2-methylphenyl)benzoyl]methionine. lithium salt] | 93% |
| CSCC[C@H](NC(=O)c1cc(Cc2ccccc2)c(COCc2ccccc2)cc1-c1ccccc1C)C(=O)O [Example 923, N-[5-Benzyl-4-benzyloxymethyl-2-(2-methylphenyl)benzoyl]methionine] | 78% |
| CSCC[C@H](NC(=O)c1ccc(COc2nc3ccccc3s2)cc1-c1ccccc1C)C(=O)O [Example 321, [4-(2-benzothiazolyloxymethyl)-2-(2-methylphenyl)benzoyl]methionine] | 90% |

same assay, conditions: read-out: % inhibition at 1 × 10^-7 M

| Structure (SMILES) | inhibition at 0.1 µM |
| --- | --- |
| CSCC[C@H](NC(=O)c1ccc(COCCc2cccc3ccccc23)cc1-c1ccccc1C)C(=O)O [Example 592, N-[4-(2-naphth-1-ylethoxymethyl)-2-(2-methylphenyl)benzoyl]methionine lithium salt] | 93% |
| CSCC[C@H](NC(=O)c1ccc(COCc2ccc(-c3cccc(C(F)(F)F)c3)o2)cc1-c1ccccc1C)C(=O)O [Example 441, N-[4-(5-(3-trifluoromethylphenyl)furan-2-ylmethoxymethyl)-2-(2-methylphenyl)benzoyl]methionine lithium salt] | 91% |
| CSCC[C@H](NC(=O)c1ccc(COCc2ccc(-c3cccc(F)c3)o2)cc1-c1ccccc1C)C(=O)O [Example 436, N-[4-(5-(3-fluorophenyl)furan-2-ylmethoxymethyl)-2-(2-methylphenyl)benzoyl]methionine lithium salt] | 89% |
| CSCC[C@H](NC(=O)c1ccc(COCc2ccc(-c3ccc(C(F)(F)F)cc3)o2)cc1-c1ccccc1C)C(=O)O [Example 445, N-[4-(5-(4-trifluoromethylphenyl)furan-2-ylmethoxymethyl)-2-(2-methylphenyl)benzoyl]methionine lithium salt] | 94% |
| CSCC[C@H](NC(=O)c1ccc(COCc2ccc(C)cc2)cc1-c1ccccc1C)C(=O)O [Example 579, N-[4-(4-methylbenzyloxymethyl)-2-(2-methylphenyl)benzoyl]methionine lithium salt] | 92% |
| CSCC[C@H](NC(=O)c1ccc(CSCCc2ccccc2)cc1-c1ccccc1C)C(=O)O [Example 562, N-[4-(2-phenyl)ethylthiomethyl-2-(2-methylphenyl)benzoyl]methionine, lithium salt] | 95% |

same assay, conditions: read-out: % inhibition at 1 × 10^-7 M; Table 3; 1 × 10^-7 M

| Structure (SMILES) | inhibition at 0.1 µM |
| --- | --- |
| CSCC[C@H](NC(=O)c1ccc(COCc2ccccc2)cc1-c1ccccc1C)C(=O)NS(=O)(=O)c1ccc(Cl)cc1 [Example 581, 4-chlorobenzenesulfonyl N-2-[4-(benzyloxymethyl)-2-(2-methylphenyl)benzoyl]amino-4-methylthiobutanamide] | 96% |
| CSCC[C@H](NC(=O)c1ccc(COCCCCC2CCCCC2)cc1-c1ccccc1C)C(=O)O [Example 600] | 93% |
| CSCC[C@H](NC(=O)c1ccc(CSc2nnc[nH]2)cc1-c1ccccc1C)C(=O)O [Example 735] | 96% |

same assay, conditions: read-out: % inhibition at 1 × 10^-8 M

| Structure (SMILES) | inhibition at 0.01 µM |
| --- | --- |
| CSCC[C@H](NC(=O)c1ccc(COC(Cc2ccccc2)c2cncs2)cc1-c1ccccc1C)C(=O)O (stereo partly shown) [Example 828, N-[4-(1-thiazol-5-yl-2-phenylethoxymethyl)-2-(2-methylphenyl)benzoyl]methionine lithium salt] | 87% |
| CCCCC(OCc1ccc(C(=O)N[C@@H](CCSC)C(=O)O)c(-c2ccccc2C)c1)c1ccc(-c2ccc(Cl)cc2)o1 (stereo partly shown) [Example 826, N-[4-(1-(5-(4-chlorophenyl)furan-2-yl)pentyloxymethyl)-2-(2-methylphenyl)benzoyl]methionine lithium salt] | 92% |
| CSCC[C@H](NC(=O)c1ccc(COCCc2ccc(Cl)cc2Cl)cc1-c1ccccc1C)C(=O)O [Example 591, N-[4-(2-(2,4-dichlorophenyl)ethoxymethyl)-2-(2-methylphenyl)benzoyl]methionine lithium salt] | 82% |
